Test results taken from paper PMC6370995, “Phase I study of PF‐04895162, a Kv7 channel opener, reveals unexpected hepatotoxicity in healthy subjects, but not rats or monkeys: clinical evidence of disrupted bile acid homeostasis” (Pharmacology Research & Perspectives, 2019).

Legend:
healthy subjects = experiment: Phase 1 clinical study in healthy subjects: safety (adverse events, laboratory tests); format: in vivo, human
Method: A randomized, double‐blind, third‐party open (i.e., subject and Investigator blind, and Sponsor open), placebo‐controlled study was conducted in healthy subjects to investigate the safety, tolerability, and pharmacokinetics of single and multiple oral doses of PF‐04895162 and to characterize the effect of food on the pharmacokinetics of a single oral dose of PF‐04895162. The study was conducted in accordance with the International Conference on Harmonization guideline for Good Clinical Practice and the principles of the Declaration of Helsinki and was approved by the local independent ethics committee. All subjects gave written informed consent prior to participation in the study. The study was planned as a parallel group, dose escalation study in four cohorts of 10 subjects each, however, the study was terminated prematurely and only Cohort 1 was conducted. After an initial screening visit to confirm eligibility, subjects in Cohort 1 (Figure 1) received single oral doses of 300 mg PF‐04895162 in Period 1 (under fasting conditions) and Period 2 (under fed conditions), and then 300 mg BID PF‐04895162 or placebo for 14 days (under fasting conditions) in Period 3 (the final dose was administered on the morning of Day 14). In Period 2, subjects were given a high‐fat breakfast 25 minutes prior to dosing which had to be consumed within 20 minutes. In all periods, subjects were fasted for at least 8 hours prior to morning dosing (except for breakfast in Period 2), and received lunch and dinner approximately 4 and 9‐10 hours after the morning dose, respectively. In Period 3, subjects were randomized so that eight subjects received PF‐04895162 and two subjects received placebo. The single doses in Periods 1 and 2, and the first dose in Period 3 were each separated by 3 days. A follow‐up visit was conducted 7‐14 days after the final dose. The ClinicalTrials.gov identifier was NCT01691274.
Subjects were healthy males and/or females of nonchildbearing potential, aged 18 to 55 years inclusive with body mass index of 17.5 to 30.5 kg/m^2 and total body weight of >50 kg. Healthy was defined as no clinically relevant abnormalities identified by a detailed medical history, full physical examination, including blood pressure and pulse rate measurement, 12 lead electrocardiograms (ECGs) or clinical laboratory tests. Subjects with evidence or history of clinically significant disease (including drug allergies, but excluding untreated, asymptomatic, seasonal allergies at the time of dosing) and pregnant or nursing females were excluded from this study. Subjects with a history of seizures or conditions with a risk of seizures were also excluded. Other exclusion criteria were generally standard for healthy subject studies and included conditions affecting drug absorption, evidence of drug and/or alcohol abuse, and restrictions on the use of prescription, nonprescription, and over‐the‐counter medications and herbal remedies.
Safety was assessed throughout the study by monitoring adverse events, vital signs (blood pressure, pulse rate, and body temperature), 12‐lead ECGs, and physical examinations. Blood samples for safety laboratory assessments were collected prior to and 24 hours after the first single dose of PF‐04895162 (Day 1 and 2 of Period 1), and in Period 3 on Days 7, 14, and 21 (additional samples were also collected in response to emerging safety data). The Columbia suicide severity rating scale (C‐SSRS) was also conducted at screening or baseline and at the follow‐up visit. Blood samples for pharmacokinetic profiles of PF‐04895162 were collected from predose to 72 hours after each single dose (Periods 1 and 2), and up to 12 and 48 hours after morning dosing on Days 7 and 14, respectively, in Period 3. Additional trough samples were also collected on Days 5, 6, 12, and 13 of Period 3.

[1] = THLE 72 hour cytotoxicity assay based on ATP depletion; format: cell-based; details: human, THLE cells, after 72 hours
Source text: […]

[2] = 300 mg single dose, fasted, N = 10
[3] = 300 mg single dose, fed, N = 10
[4] = Grade 1, >1.25 - 2.5 × ULN, 300 mg BID
[5] = Grade 2, >2.5 - 5 × ULN, 300 mg BID
[6] = Grade 3, >5 - 10 × ULN, 300 mg BID

## O=C(Cc1ccc(F)cc1)Nn1c(C2CC2)nc2cc(F)ccc2c1=O [PF‐04895162, N‐(2‐cyclopropyl‐7‐fluoro‐4‐oxoquinazolin‐3(4H)‐yl)‐2‐(4‐fluorophenyl)ethanamide]
Healthy subjects; 300 mg BID
  ALT, Subject 8, Day 7: 1.5 x the ULN
Healthy subjects; 300 mg BID, 14-day multiple dose
  Height of transaminase elevations: ≤ 5 x the ULN
Healthy subjects; 300 mg BID, Day 14, Grade 3
  ALT elevation, Subject 8: 5.6 x ULN
Healthy subjects; 300 mg BID, Grade 2
  AST increase, Subject 8: 2.7 x ULN
Healthy subjects; 300 mg BID, N = 8
  Number of Subjects discontinued due to AEs, all causalities: 1 (1)
  Number of Subjects discontinued due to AEs, treatment-related: 1 (1)
  Number of Subjects with AEs, all causalities: 8
  Number of Subjects with AEs, treatment-related: 6
  Number of Subjects with Amylase increased, all causalities: 2 (2)
  Number of Subjects with Amylase increased, treatment-related: 2 (2)
  Number of Subjects with Decreased appetite, all causalities: 2
  Number of Subjects with Decreased appetite, treatment-related: 0
  Number of Subjects with Flatulence, all causalities: 2
  Number of Subjects with Flatulence, treatment-related: 1
  Number of Subjects with Transaminases increased, all causalities: 6 (6)
  Number of Subjects with Transaminases increased, treatment-related: 6 (6)
  Number of Subjects with serious AEs: 0
  Number of Subjects with severe AEs: 0
Healthy subjects; 300 mg BID, by Day 14
  ALT response, Subject 6: did not demonstrate any ALT elevations
Healthy subjects; 300 mg BID, starting on Day 14
  GGT elevation, Subject 8: 1.4 x ULN
Healthy subjects; 300 mg BID, subjects who finished Period 3
  Subjects with elevations in ALT on Day 14: six of the remaining seven subjects
Healthy subjects; [2]
  Number of Subjects discontinued due to AEs, all causalities: 0
  Number of Subjects with AEs, all causalities: 1 (1)
  Number of Subjects with AEs, treatment-related: 1 (1)
  Number of Subjects with Amylase increased, all causalities: 0
  Number of Subjects with Decreased appetite, all causalities: 0
  Number of Subjects with Flatulence, all causalities: 0
  Number of Subjects with Transaminases increased, all causalities: 0
  Number of Subjects with serious AEs: 0
  Number of Subjects with severe AEs: 0
Healthy subjects; [3]
  Number of Subjects discontinued due to AEs, all causalities: 0
  Number of Subjects with AEs, all causalities: 2
  Number of Subjects with AEs, treatment-related: 0
  Number of Subjects with Amylase increased, all causalities: 0
  Number of Subjects with Decreased appetite, all causalities: 0
  Number of Subjects with Flatulence, all causalities: 0
  Number of Subjects with Transaminases increased, all causalities: 0
  Number of Subjects with serious AEs: 0
  Number of Subjects with severe AEs: 0
Healthy subjects; 300 mg twice daily for 2 weeks, healthy subjects
  Subjects with transaminase elevations (≥grade 1): six of eight
Healthy subjects; Day 3 of Period 3, 300 mg BID, ULN = 60 IU/L
  Lipase, Subject 7: 434 IU/L
Healthy subjects; Day 3 of Period 3, 300 mg BID, ULN = 136 IU/L
  Amylase, Subject 7: 179 IU/L
Healthy subjects; Grade 1, >1 - 1.5 × ULN, 300 mg BID
  TBIL abnormalities, number of subjects, Grade 1: 2
Healthy subjects; [4]
  ALT abnormalities, number of subjects, Grade 1: 3
  AST abnormalities, number of subjects, Grade 1: 0
Healthy subjects; Grade 2, >1.5 - 2.5 × ULN, 300 mg BID
  TBIL abnormalities, number of subjects, Grade 2: 0
Healthy subjects; [5]
  ALT abnormalities, number of subjects, Grade 2: 2
  AST abnormalities, number of subjects, Grade 2: 1
Healthy subjects; Grade 3, >2.5 - 5 × ULN, 300 mg BID
  TBIL abnormalities, number of subjects, Grade 3: 0
Healthy subjects; [6]
  ALT abnormalities, number of subjects, Grade 3: 1
  AST abnormalities, number of subjects, Grade 3: 0
Healthy subjects; Grade 4, >5 × ULN, 300 mg BID
  TBIL abnormalities, number of subjects, Grade 4: 0
Healthy subjects; Grade 4, >10 × ULN, 300 mg BID
  ALT abnormalities, number of subjects, Grade 4: 0
  AST abnormalities, number of subjects, Grade 4: 0
[1]
  IC50 at 72 h: ~192 µM
